Data: the NIST ThermoML archive (doi:10.1016/j.jct.2015.01.004)
Several values for one entry are separate records, joined by “and”; a condition that tells them apart may be missing. Identical values can stand only once.

Test: molar heat capacity at constant pressure; xn = mol fraction of the nth substance listed
Details: 100 kPa

[Si] [silicon] + [Li]
Details | molar heat capacity at constant pressure
2.03 K, Crystal of intercomponent compound 1, relaxation calorimetry, x2 = 0.81 | 0.0088 J/K/mol
2.03 K, Crystal of intercomponent compound 2, relaxation calorimeter, x2 = 0.804 | 0.0022 J/K/mol
2.13 K, Crystal of intercomponent compound 1, relaxation calorimetry, x2 = 0.81 | 0.0091 J/K/mol
2.13 K, Crystal of intercomponent compound 2, relaxation calorimeter, x2 = 0.804 | 0.0023 J/K/mol
2.14 K, Crystal of intercomponent compound 2, relaxation calorimeter, x2 = 0.804 | 0.0022 J/K/mol
2.25 K, Crystal of intercomponent compound 1, relaxation calorimetry, x2 = 0.81 | 0.0096 J/K/mol
2.25 K, Crystal of intercomponent compound 2, relaxation calorimeter, x2 = 0.804 | 0.0024 J/K/mol and 0.0023 J/K/mol
2.37 K, Crystal of intercomponent compound 1, relaxation calorimetry, x2 = 0.81 | 0.0101 J/K/mol
2.37 K, Crystal of intercomponent compound 2, relaxation calorimeter, x2 = 0.804 | 0.0024 J/K/mol and 0.0025 J/K/mol
2.49 K, Crystal of intercomponent compound 1, relaxation calorimetry, x2 = 0.81 | 0.0107 J/K/mol
2.49 K, Crystal of intercomponent compound 2, relaxation calorimeter, x2 = 0.804 | 0.0026 J/K/mol
2.5 K, Crystal of intercomponent compound 2, relaxation calorimeter, x2 = 0.804 | 0.0025 J/K/mol
2.63 K, Crystal of intercomponent compound 1, relaxation calorimetry, x2 = 0.81 | 0.0111 J/K/mol
2.63 K, Crystal of intercomponent compound 2, relaxation calorimeter, x2 = 0.804 | 0.0028 J/K/mol and 0.0025 J/K/mol
2.77 K, Crystal of intercomponent compound 1, relaxation calorimetry, x2 = 0.81 | 0.0116 J/K/mol
2.77 K, Crystal of intercomponent compound 2, relaxation calorimeter, x2 = 0.804 | 0.0028 J/K/mol
2.92 K, Crystal of intercomponent compound 1, relaxation calorimetry, x2 = 0.81 | 0.0121 J/K/mol
2.92 K, Crystal of intercomponent compound 2, relaxation calorimeter, x2 = 0.804 | 0.0031 J/K/mol and 0.003 J/K/mol
3.08 K, Crystal of intercomponent compound 1, relaxation calorimetry, x2 = 0.81 | 0.0126 J/K/mol
3.08 K, Crystal of intercomponent compound 2, relaxation calorimeter, x2 = 0.804 | 0.0032 J/K/mol and 0.003 J/K/mol
3.24 K, Crystal of intercomponent compound 1, relaxation calorimetry, x2 = 0.81 | 0.0133 J/K/mol
3.24 K, Crystal of intercomponent compound 2, relaxation calorimeter, x2 = 0.804 | 0.0035 J/K/mol and 0.0032 J/K/mol
3.41 K, Crystal of intercomponent compound 1, relaxation calorimetry, x2 = 0.81 | 0.0135 J/K/mol
3.41 K, Crystal of intercomponent compound 2, relaxation calorimeter, x2 = 0.804 | 0.0036 J/K/mol
3.6 K, Crystal of intercomponent compound 1, relaxation calorimetry, x2 = 0.81 | 0.0141 J/K/mol
3.6 K, Crystal of intercomponent compound 2, relaxation calorimeter, x2 = 0.804 | 0.0039 J/K/mol and 0.0036 J/K/mol
3.79 K, Crystal of intercomponent compound 1, relaxation calorimetry, x2 = 0.81 | 0.015 J/K/mol
3.79 K, Crystal of intercomponent compound 2, relaxation calorimeter, x2 = 0.804 | 0.0041 J/K/mol and 0.004 J/K/mol
3.99 K, Crystal of intercomponent compound 1, relaxation calorimetry, x2 = 0.81 | 0.0157 J/K/mol
3.99 K, Crystal of intercomponent compound 2, relaxation calorimeter, x2 = 0.804 | 0.0044 J/K/mol and 0.0042 J/K/mol
4.2 K, Crystal of intercomponent compound 1, relaxation calorimetry, x2 = 0.81 | 0.0163 J/K/mol
4.2 K, Crystal of intercomponent compound 2, relaxation calorimeter, x2 = 0.804 | 0.0047 J/K/mol and 0.0044 J/K/mol
4.43 K, Crystal of intercomponent compound 1, relaxation calorimetry, x2 = 0.81 | 0.0172 J/K/mol
4.43 K, Crystal of intercomponent compound 2, relaxation calorimeter, x2 = 0.804 | 0.0048 J/K/mol and 0.005 J/K/mol
4.66 K, Crystal of intercomponent compound 2, relaxation calorimeter, x2 = 0.804 | 0.0051 J/K/mol
4.67 K, Crystal of intercomponent compound 1, relaxation calorimetry, x2 = 0.81 | 0.0175 J/K/mol
4.67 K, Crystal of intercomponent compound 2, relaxation calorimeter, x2 = 0.804 | 0.0052 J/K/mol
4.91 K, Crystal of intercomponent compound 2, relaxation calorimeter, x2 = 0.804 | 0.0056 J/K/mol
4.92 K, Crystal of intercomponent compound 1, relaxation calorimetry, x2 = 0.81 | 0.0182 J/K/mol
4.92 K, Crystal of intercomponent compound 2, relaxation calorimeter, x2 = 0.804 | 0.0054 J/K/mol
5 K, Crystal of intercomponent compound 1, relaxation calorimetry + DSC, x2 = 0.81 | 0.0184 J/K/mol
5 K, Crystal of intercomponent compound 2, relaxation calorimetry + DSC, x2 = 0.804 | 0.0056 J/K/mol
5.18 K, Crystal of intercomponent compound 1, relaxation calorimetry, x2 = 0.81 | 0.0193 J/K/mol
5.18 K, Crystal of intercomponent compound 2, relaxation calorimeter, x2 = 0.804 | 0.006 J/K/mol and 0.0057 J/K/mol
5.46 K, Crystal of intercomponent compound 2, relaxation calorimeter, x2 = 0.804 | 0.0064 J/K/mol
5.47 K, Crystal of intercomponent compound 1, relaxation calorimetry, x2 = 0.81 | 0.0201 J/K/mol
5.47 K, Crystal of intercomponent compound 2, relaxation calorimeter, x2 = 0.804 | 0.0061 J/K/mol
5.76 K, Crystal of intercomponent compound 1, relaxation calorimetry, x2 = 0.81 | 0.0206 J/K/mol
5.76 K, Crystal of intercomponent compound 2, relaxation calorimeter, x2 = 0.804 | 0.007 J/K/mol and 0.0066 J/K/mol
6.07 K, Crystal of intercomponent compound 1, relaxation calorimetry, x2 = 0.81 | 0.0218 J/K/mol
6.07 K, Crystal of intercomponent compound 2, relaxation calorimeter, x2 = 0.804 | 0.0075 J/K/mol and 0.0071 J/K/mol
6.39 K, Crystal of intercomponent compound 1, relaxation calorimetry, x2 = 0.81 | 0.0227 J/K/mol
6.39 K, Crystal of intercomponent compound 2, relaxation calorimeter, x2 = 0.804 | 0.0083 J/K/mol and 0.0079 J/K/mol
6.73 K, Crystal of intercomponent compound 1, relaxation calorimetry, x2 = 0.81 | 0.0242 J/K/mol
6.73 K, Crystal of intercomponent compound 2, relaxation calorimeter, x2 = 0.804 | 0.0091 J/K/mol and 0.0088 J/K/mol
7.09 K, Crystal of intercomponent compound 1, relaxation calorimetry, x2 = 0.81 | 0.0252 J/K/mol
7.09 K, Crystal of intercomponent compound 2, relaxation calorimeter, x2 = 0.804 | 0.0098 J/K/mol and 0.01 J/K/mol
7.47 K, Crystal of intercomponent compound 1, relaxation calorimetry, x2 = 0.81 | 0.0267 J/K/mol
7.47 K, Crystal of intercomponent compound 2, relaxation calorimeter, x2 = 0.804 | 0.0113 J/K/mol and 0.0109 J/K/mol
7.87 K, Crystal of intercomponent compound 1, relaxation calorimetry, x2 = 0.81 | 0.0284 J/K/mol
7.87 K, Crystal of intercomponent compound 2, relaxation calorimeter, x2 = 0.804 | 0.0126 J/K/mol and 0.0123 J/K/mol
8.29 K, Crystal of intercomponent compound 2, relaxation calorimeter, x2 = 0.804 | 0.0143 J/K/mol and 0.0139 J/K/mol
8.3 K, Crystal of intercomponent compound 1, relaxation calorimetry, x2 = 0.81 | 0.0304 J/K/mol
8.74 K, Crystal of intercomponent compound 1, relaxation calorimetry, x2 = 0.81 | 0.0327 J/K/mol
8.74 K, Crystal of intercomponent compound 2, relaxation calorimeter, x2 = 0.804 | 0.016 J/K/mol and 0.0162 J/K/mol
9.2 K, Crystal of intercomponent compound 1, relaxation calorimetry, x2 = 0.81 | 0.0351 J/K/mol
9.2 K, Crystal of intercomponent compound 2, relaxation calorimeter, x2 = 0.804 | 0.0183 J/K/mol and 0.0187 J/K/mol
9.69 K, Crystal of intercomponent compound 2, relaxation calorimeter, x2 = 0.804 | 0.0216 J/K/mol and 0.0208 J/K/mol
9.7 K, Crystal of intercomponent compound 1, relaxation calorimetry, x2 = 0.81 | 0.038 J/K/mol
10 K, Crystal of intercomponent compound 1, relaxation calorimetry + DSC, x2 = 0.81 | 0.0403 J/K/mol
10 K, Crystal of intercomponent compound 2, relaxation calorimetry + DSC, x2 = 0.804 | 0.0233 J/K/mol
10.22 K, Crystal of intercomponent compound 1, relaxation calorimetry, x2 = 0.81 | 0.0412 J/K/mol
10.22 K, Crystal of intercomponent compound 2, relaxation calorimeter, x2 = 0.804 | 0.0245 J/K/mol and 0.025 J/K/mol
10.75 K, Crystal of intercomponent compound 1, relaxation calorimetry, x2 = 0.81 | 0.0449 J/K/mol
10.75 K, Crystal of intercomponent compound 2, relaxation calorimeter, x2 = 0.804 | 0.0286 J/K/mol and 0.0291 J/K/mol
11.32 K, Crystal of intercomponent compound 1, relaxation calorimetry, x2 = 0.81 | 0.0492 J/K/mol
11.32 K, Crystal of intercomponent compound 2, relaxation calorimeter, x2 = 0.804 | 0.0342 J/K/mol and 0.0335 J/K/mol
11.93 K, Crystal of intercomponent compound 1, relaxation calorimetry, x2 = 0.81 | 0.0547 J/K/mol
11.93 K, Crystal of intercomponent compound 2, relaxation calorimeter, x2 = 0.804 | 0.0403 J/K/mol and 0.0398 J/K/mol
12.56 K, Crystal of intercomponent compound 1, relaxation calorimetry, x2 = 0.81 | 0.0613 J/K/mol
